The subject of experiment [1] is erythroid cells. Briefly: Uptake of labelled transferrin receptor-binding peptide into erythroid cells, fluorescence microscopy. The format is cell-based. Particulars: added at day M2, about 1 mg/ml, 72 hours, 37 degrees. As for the experimental part: Uptake of a transferrin-binding peptide was also tested. Wild-type CD34+ cells were differentiated as described herein. At day M2 of maturation/differentiation, FITC-LC-HAIYPRH (a fluorescently labelled peptide that binds the transferrin receptor) was added to a culture of about 0.5×10^6 cells at about 1 mg/ml. The labeled peptide was obtained from Anapsec. The cells were cultured in the presence of the labeled peptide for 72 hours at 37 degrees. Internalization of the FITC-LC-HAIYPRH labeled polypeptide by erythroid cells was confirmed by fluorescence microscopy.

The subject of experiment [2] is erythroid cells undergoing maturation. Briefly: Uptake of Alexa488-labeled transferrin by erythroid cells during maturation. It is filed as cell-based. The conditions noted are these: 1 mg/ml in complete media, 0-24 hours, 37 or 4 degrees; days M1, M4, M5, M6. On the procedure: In this example, transferrin receptor (CD71; also referred to herein as TRF) was evaluated for internalization into erythroid cells undergoing maturation. Briefly, wild-type CD34+ cells were differentiated as described herein. Samples of about 0.5×10^6 cells were taken on days M1, M4, M5, and M6 of maturation. […] The cells were incubated with the TRF-Alexa488 at a concentration of 1 mg/ml in complete media for 0-24 hours at 37 degrees or 4 degrees as indicated in FIG. 2.

No end group written: not given here. *: point of attachment. FITC = O=C1OC2(c3ccc(O)cc3Oc3cc(O)ccc32)c2ccc(NC(=S)*)cc21

The values that follow come from US20190062788A1, “LIPID NANOPARTICLE METHODS AND COMPOSITIONS FOR PRODUCING ENGINEERED ERYTHROID CELLS” (RUBIUS THERAPEUTICS, INC., priority 2017, published 2019).

As to “FITC-LC-HAIYPRH: a fluorescently labelled peptide that binds the transferrin receptor, obtained from Anapsec ({FITC-LC}-HAIYPRH)”, the “Internalization of labeled polypeptide by erythroid cells” value in experiment [1] is reported as “confirmed”.

For “TFR-Alexa488: Alexa488-labeled transferrin obtained from Thermo Fisher Scientific (#T13342)”, the Transferrin internalization entry in experiment [2] is “active throughout the maturation phase”.
